Test results from PMC8427973, “Regulation of the HTRA2 Protease Activity by an Inhibitory Antibody-Derived Peptide Ligand and the Influence on HTRA2-Specific Protein Interaction Networks in Retinal Tissues” (Biomedicines, 2021).

Tests used:
HTRA2 = details: immunoprecipitation experiments; cited from earlier work
Source text: The mitochondrial serine protease HTRA2 has many versatile biological functions ranging from being an important regulator of apoptosis to being an essential component for neuronal cell survival and mitochondrial homeostasis. Loss of HTRA2 protease function is known to cause neurodegeneration, whereas overactivation of its proteolytic function is associated with cell death and inflammation.

[1] = target: T1, recombinant HTRA2 protein (Homo sapiens, UniProt O43464); experiment: HTRA2 protease activity assay with fluorescent H2-optimal substrate; format: biochemical; details: for Average degradation rate of the optimal substrate H2 by HTRA2 (enzymatic reaction rate per minute): pH 8.0, RT, untreated positive control 229 U/min
T1 construct: 6xHis (C); purchased Novoprotein Scientific INC., Summit, NJ, USA
T1 sequence (O43464 134-458): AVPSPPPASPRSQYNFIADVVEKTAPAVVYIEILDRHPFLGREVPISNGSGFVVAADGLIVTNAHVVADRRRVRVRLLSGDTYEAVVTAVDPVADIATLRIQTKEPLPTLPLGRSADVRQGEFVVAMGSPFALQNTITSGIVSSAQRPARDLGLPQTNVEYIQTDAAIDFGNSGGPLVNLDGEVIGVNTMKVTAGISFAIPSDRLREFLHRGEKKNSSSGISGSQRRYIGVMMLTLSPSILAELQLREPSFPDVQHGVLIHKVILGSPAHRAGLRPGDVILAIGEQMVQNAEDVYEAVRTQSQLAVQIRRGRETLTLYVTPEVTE
Protocol: The HTRA2 protease activity assay was performed as described by Martins et al. (2003), but with some slight modifications. The experiment was performed with 100 nM recombinant HTRA2 protein (Novoprotein Scientific INC., Summit, NJ, USA) in a protease assay buffer (50 mM tris(hydroxymethyl)-aminomethane (TRIS), 0.5 mM ethylenediaminetetraacetic acid (EDTA), and 1 mM dithiothreitol (DTT), pH 8.0) containing 10 µM H2-optimal substrate (Innovagen AB, Lund, Sweden). The H2-optimal substrate is commonly used to measure the protease activity of HTRA2 and consists of a structural quencher and a fluorophore unit. The cleavage of the substrate leads to the disruption of the quencher/fluorophore complex and the degradation rate can be measured by fluorescence. The different sample groups were treated with 50 µM PDZ-Opt, 50 µM PDZ-Sub, 50 µM synthetic CDR1 peptide, or 30 µM UCF-101, respectively. The drug compound UCF-101 is an inhibitor of the catalytic domain of HTRA2 and was purchased from Sigma Aldrich (Darmstadt, Germany). The concentrations of the peptide ligands for the HTRA2 protease activity assay were chosen from the previous publication. The concentration of UCF-101 was determined to be optimal from the preliminary experiments. In addition, a positive control containing only 100 nM recombinant HTRA2 and a negative control (only protease assay buffer) were included in this experiment. All of the sample groups were incubated for 1 h at 37 °C to determine the maximum degradation rate of HTRA2. For the analysis of the enzymatic reaction rate of HTRA2, all samples were measured subsequently after the addition of the 10 µM H2-optimal substrate at RT. Fluorescence was monitored on a Spark® 10 M multimode microplate-reader (Tecan Trading AG, Männedorf, Switzerland) with an excitation at 320 nm and a fluorescence emission at 405 nm. The fluorescence background of the substrate was substracted from the fluorescence intensities of the different the sample groups to normalize the data.
To determine the proteolytic activity of HTRA2 we used the fluorescent H2 optimal substrate developed by Martins et al. (2003). The optimal substrate H2 encoded a short specific amino acid sequence, which is preferentially cleaved by HTRA2, and was also modified with a fluorescent dye and quencher. […] Under physiological conditions, the proteolytic activity of HTRA2 is suppressed by the C-terminal PDZ domain, which blocks the access of potential substrates to the catalytic domain by steric hindrance. The binding of short hydrophobic polypeptides to the allosteric PDZ domain can induce specific conformational changes of HTRA2 and are able to regulate its proteolytic activity. Therefore, Martins et al. (2003) specifically designed the peptide ligands PDZ-Opt (GQYYFV) and PDZ-Sub (GGIRRV), which are known to increase the proteolytic activity of HTRA2 in this assay.

[2] = system: retinal ganglion cells (RGCs); details: cited from earlier work
Source text: However, in a recent study of our group we identified the protein HTRA2 as a high-affinity interaction partner of the synthetic peptide […] [16]. Thereby, this synthetic peptide encodes a complementary-determining region 1 (CDR1) of polyclonal antibody molecules, which was originally identified as a potential biomarker candidate in primary-open angle glaucoma (POAG) patients.

ASGYTFTNYGLSWVR [CDR, synthetic peptide encoding a complementary-determining region 1 (CDR1) of polyclonal antibody molecules]
Affinity for the target protein HTRA2 (HTRA2): high affinity
Decrease of the average degradation rate of the optimal substrate H2 compared with the untreated positive control ([1]; 50 µM peptide, 100 nM HTRA2, 10 µM substrate, RT): around 45%
Average degradation rate of the optimal substrate H2 by HTRA2 (enzymatic reaction rate per minute) ([1]; 50 µM peptide, 100 nM recombinant HTRA2, 10 µM H2-optimal substrate, fluorescence ex 320 nm / em 405 nm): 127 U/min
Maximum degradation rate of the H2 optimal substrate by HTRA2 ([1]; 50 µM peptide, 1 h at 37 °C, n = 3, Figure 1C): significantly decreased
Inhibition of the proteolytic activity of HTRA2 ([1]; specific protease function assay, p < 0.01 (abstract)): up to 50%
Effect on retinal ganglion cells (RGCs) in an organ culture model for glaucoma [2]: neuroprotective effects

O=C1C(=Cc2ccc(-c3ccccc3[N+](=O)[O-])o2)C(=O)N(c2ccccc2)C(=S)N1c1ccccc1 [UCF-101, reference compound]
Average degradation rate of the optimal substrate H2 by HTRA2 (enzymatic reaction rate per minute) ([1]; 30 µM UCF-101, 100 nM recombinant HTRA2, 10 µM H2-optimal substrate): 0 U/min
